The values below come from ChEMBL document CHEMBL1136458, “MexAB-OprM specific efflux pump inhibitors in Pseudomonas aeruginosa. Part 2: achieving activity in vivo through the use of alternative scaffolds” (Bioorg Med Chem Lett, 2003).

A short description of data set [1]: Ratio of potentiation of AZT without serum to with serum. It is filed as functional.
The subject of data set [2] is Pseudomonas aeruginosa. As to the kind of experiment: Minimum Potentiation Concentration of EPI required to achieve an 8-fold reduction in antibiotic MIC of levofloxacin against MexABOprMover-expressing strain of Pseudomonas aeruginosa. It is filed as functional.
Data set [3] relates to Pseudomonas aeruginosa. As to the kind of experiment: Minimum Potentiation Concentration of EPI required to achieve an 8-fold reduction in antibiotic MIC of AZT against MexAB-OprM pump system in Pseudomonas aeruginosa with 10% horse serum. The data set is classed as functional.
For data set [4], the system named is Pseudomonas aeruginosa. As to the kind of experiment: Minimum Potentiation Concentration of EPI required to achieve an 8-fold reduction in antibiotic MIC of AZT against MexAB-OprM pump system in Pseudomonas aeruginosa without horse serum. The data set is classed as functional.
Data set [5] concerns the target Albumin (Homo sapiens, UniProt P02768). As to the kind of experiment: Protein binding affinity for human serum albumin was measured.
Data set [6] has as its system Mus musculus. As to the kind of experiment: In vivo number of survivors on day 7 after administration at the dose of 50 mg/kg along LVFX(7.5 mg/kg) in mice (Pseudomonas aeruginosa PAM1723). The data set is classed as functional.
For data set [7], the system named is Mus musculus. As to the kind of experiment: In vivo number of survivors on day 1after administration at the dose of 50 mg/kg along LVFX (15 mg/kg) in mice (Pseudomonas aeruginosa PAM1723). It is filed as functional.
Data set [8] relates to Pseudomonas aeruginosa. Nature of the data set: In vivo percent survival on day 7th after administration at the dose of 50 mg/kg along LVFX (15 mg/kg) in Pseudomonas aeruginosa PAM1723. The data set is classed as functional.
The test system of data set [9] is Mus musculus. Nature of the data set: In vivo number of survivors on day 0 after administration at the dose of 50 mg/kg along LVFX (7.5 mg/kg) along with in mice (Pseudomonas aeruginosa PAM1723). It is filed as functional.
For data set [10], the system named is Mus musculus. Nature of the data set: In vivo number of survivors on day 1after administration at the dose of 50 mg/kg along LVFX (7.5 mg/kg) in mice (Pseudomonas aeruginosa PAM1723). It is filed as functional.
Data set [11] has as its system Mus musculus. As to the kind of experiment: In vivo number of survivors on day 4 after administration at the dose of 50 mg/kg along LVFX (15 mg/kg) in mice (Pseudomonas aeruginosa PAM1723). It is filed as functional.
Data set [12] has as its system Mus musculus. Nature of the data set: In vivo number of survivors on day 0 after administration at the dose of 50 mg/kg along LVFX (15 mg/kg) in mice (Pseudomonas aeruginosa PAM1723). It is filed as functional.
In data set [13] the test system is Mus musculus. As to the kind of experiment: In vivo number of survivors on day 7 after administration at the dose of 50 mg/kg along LVFX (15 mg/kg) in mice (Pseudomonas aeruginosa PAM1723). The data set is classed as functional.
Data set [14] has as its system Pseudomonas aeruginosa. As to the kind of experiment: In vivo percent survival on day 7th after administration at the dose of 50 mg/kg along LVFX (7.5 mg/kg) in Pseudomonas aeruginosa PAM1723. The data set is classed as functional.
For data set [15], the system named is Mus musculus. Nature of the data set: In vivo number of survivors on day 4 after administration at the dose of 50 mg/kg along LVFX (7.5 mg/kg) in mice (Pseudomonas aeruginosa PAM1723). It is filed as functional.
For data set [16], the system named is Pseudomonas aeruginosa. Nature of the data set: Minimum concentration ([…]) of inhibitor required to reduce (potentiate) the activity of antibacterial drug-LVFX for Pseudomonas aeruginosa PAM1723 by n-fold. It is filed as functional.
For data set [17], the system named is Mus musculus. As to the kind of experiment: In vivo number of survivors on day 7 after administration at the dose of 50 mg/kg along LVFX (7.5 mg/kg) in mice (Pseudomonas aeruginosa PAM1723). It is filed as functional.
The test system of data set [18] is Mus musculus. Nature of the data set: In vivo number of survivors on day 0 after administration at the dose of 50 mg/kg along LVFX (7.5 mg/kg) in mice (Pseudomonas aeruginosa PAM1723). It is filed as functional.
Data set [19] relates to Mus musculus. As to the kind of experiment: In vivo number of survivors on day 7 after administration (30 mg/kg) in mice(Pseudomonas aeruginosa PAM1723). The data set is classed as functional.
Data set [20] deals with Mus musculus. Nature of the data set: In vivo number of survivors on day 7 after administration (15 mg/kg) in mice(Pseudomonas aeruginosa PAM1723). It is filed as functional.
The subject of data set [21] is Mus musculus. As to the kind of experiment: In vivo percent survival on day 7th after administration (15 mg/kg) in mice(Pseudomonas aeruginosa PAM1723). The data set is classed as functional.
The subject of data set [22] is Mus musculus. Nature of the data set: In vivo number of survivors on day 7 after administration (7.5 mg/kg) in mice(Pseudomonas aeruginosa PAM1723). It is filed as functional.
The test system of data set [23] is Mus musculus. Nature of the data set: In vivo number of survivors on day 4 after administration (15 mg/kg) in mice Pseudomonas aeruginosa PAM1723). It is filed as functional.
For data set [24], the system named is Mus musculus. As to the kind of experiment: In vivo number of survivors on day 1 after administration (30 mg/kg) in mice(Pseudomonas aeruginosa PAM1723). It is filed as functional.
Data set [25] deals with Mus musculus. As to the kind of experiment: In vivo number of survivors on day 0 after administration (30 mg/kg) in mice(Pseudomonas aeruginosa PAM1723). It is filed as functional.
For data set [26], the system named is Mus musculus. Nature of the data set: In vivo number of survivors on day 1 after administration (7.5 mg/kg) in mice(Pseudomonas aeruginosa PAM1723). The data set is classed as functional.
The test system of data set [27] is Mus musculus. Nature of the data set: In vivo number of survivors on day 0 after administration (7.5 mg/kg) in mice(Pseudomonas aeruginosa PAM1723). It is filed as functional.
Data set [28] concerns Mus musculus. As to the kind of experiment: In vivo number of survivors on day 0 after administration (15 mg/kg) in mice(Pseudomonas aeruginosa PAM1723). It is filed as functional.
Data set [29] concerns Mus musculus. Nature of the data set: In vivo number of survivors on day 4 after administration (30 mg/kg) in mice(Pseudomonas aeruginosa PAM1723). It is filed as functional.
The subject of data set [30] is Mus musculus. Nature of the data set: In vivo percent survival on day 7th after administration (30 mg/kg) in mice(Pseudomonas aeruginosa PAM1723). It is filed as functional.
Data set [31] concerns Mus musculus. As to the kind of experiment: In vivo number of survivors on day 1 after administration (15 mg/kg) in mice(Pseudomonas aeruginosa PAM1723). It is filed as functional.
In data set [32] the test system is Mus musculus. Nature of the data set: In vivo number of survivors on day 4 after administration (7.5 mg/kg) in mice(Pseudomonas aeruginosa PAM1723). The data set is classed as functional.
For data set [33], the system named is Mus musculus. Nature of the data set: In vivo percent survival on day 7th after administration (7.5 mg/kg) in mice(Pseudomonas aeruginosa PAM1723). It is filed as functional.

Some results are limits rather than exact numbers.

Chain of Albumin (P02768 whole entry): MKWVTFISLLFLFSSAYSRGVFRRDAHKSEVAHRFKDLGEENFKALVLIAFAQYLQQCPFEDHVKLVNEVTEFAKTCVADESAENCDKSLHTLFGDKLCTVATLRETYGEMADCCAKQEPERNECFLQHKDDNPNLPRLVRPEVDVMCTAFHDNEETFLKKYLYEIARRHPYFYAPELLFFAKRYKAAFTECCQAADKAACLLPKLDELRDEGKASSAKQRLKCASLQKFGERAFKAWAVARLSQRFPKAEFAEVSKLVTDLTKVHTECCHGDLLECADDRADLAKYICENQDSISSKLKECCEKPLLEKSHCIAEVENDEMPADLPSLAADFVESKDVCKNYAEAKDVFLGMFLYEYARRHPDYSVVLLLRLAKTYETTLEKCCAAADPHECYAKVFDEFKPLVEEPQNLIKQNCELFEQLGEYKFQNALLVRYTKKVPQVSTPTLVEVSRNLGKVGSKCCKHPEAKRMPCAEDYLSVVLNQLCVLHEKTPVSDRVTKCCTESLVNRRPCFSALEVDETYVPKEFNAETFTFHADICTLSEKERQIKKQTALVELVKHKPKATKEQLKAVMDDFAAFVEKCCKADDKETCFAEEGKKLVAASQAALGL

On to `CC(C)c1csc(COc2ccn3c(=O)c(C(=O)O)cnc3c2)n1`, for which the Ratio in data set [1] was determined as 2. Moreover, the MPC8 was found to be 320 µg/mL in data set [2], 80 µg/mL in data set [3] and 40 µg/mL in data set [4].
As usually defined, the Kd is the constant that tells how readily two partners part at equilibrium. Higher therefore signals weaker binding. Molecule `CC(C)c1csc(/C=C/c2cccc(NC(=O)Cc3ccccc3C(=O)O)c2)n1` returned a Binding in data set [5] of more than 99.9%. The molecule also yielded a Kd in [5] of 0.28 µM. Also, the Ratio in data set [1] is more than 16. The MPC8 was more than 60 µg/mL in data set [2], 10 µg/mL in data set [3] and “<=0.63 ug ml-1” in data set [4].
For the molecule `CC(C)c1csc(/C=C/c2ccn3c(=O)c(-c4nnn[nH]4)cnc3c2)n1`, the No. of survivors in data set [6] came to 1; in data set [7], 10; in data set [9] it was 10; in data set [10], 1; in data set [11], 7; in data set [12] it was 10. The No. of survivors turned out to be 7 in data set [13] and 1 in data set [15]. The figures for the survival at 50 mg/kg in data set [8] and in [14] were 70% and 10%, respectively. For the same molecule, the Binding in [5] is given as 90.8%. Moreover, the Kd in data set [5] was determined as 22 µM. In addition, the Ratio in data set [1] stood at 1. Moreover, the MPC8 in [2] worked out at 1.25 µg/mL; in data set [3], 2.5 µg/mL; in data set [4], 2.5 µg/mL.
`CC(C)c1csc(/C=C/c2ccn3c(=O)c(C(=O)O)cnc3c2)n1`: in data set [1], the Ratio was 0.5. Further, the MPC8 in data set [2] is more than 320 µg/mL; in data set [3] it was 40 µg/mL; in data set [4] it was 80 µg/mL.
In turn, `CC(C)c1csc(COc2cc3c(cc2F)c(=O)c(C(=O)O)cn3C2CC2)n1` registered a Binding in [5] of 90.5%. The Ratio in data set [1] worked out at 1. In addition, the MPC8 in data set [2] worked out at 320 µg/mL; in data set [3], 10 µg/mL; in data set [4], 10 µg/mL.
Regarding `CCn1cc(C(=O)O)c(=O)c2ccc(/C=C/c3nc(C(C)C)cs3)cc21`, in data set [1], the Ratio is 1. Besides, the MPC8 is more than 160 µg/mL in data set [2], 10 µg/mL in data set [3] and 10 µg/mL in data set [4].
Molecule `CC(C)c1csc(CCc2ccn3c(=O)c(-c4nnn[nH]4)cnc3c2)n1` registered a Binding in data set [5] of 81.5%. Moreover, the Kd in data set [5] stood at 327 µM. For the same molecule, the Ratio in [1] was 1. The MPC8 in [16] was more than 80 µg/mL; in data set [3] it was 10 µg/mL; in [4], 10 µg/mL.
In the case of `CCn1cc(-c2nnn[nH]2)c(=O)c2ccc(/C=C/c3nc(C(C)C)cs3)cc21`, the Ratio in data set [1] was 4. For the same molecule, the MPC8 was determined as 1.25 µg/mL in data set [2], 20 µg/mL in [3] and 5 µg/mL in data set [4].
Consider `CC(C)c1csc(COc2ccn3c(=O)c(-c4nnn[nH]4)cnc3c2)n1`, for which the survival at 50 mg/kg in [8] amounted to 100%; in data set [14] it was 40%. For the same molecule, the No. of survivors was found to be 4 in data set [10]; 10 in data set [12]; 4 in data set [17]; 10 in [18]; 4 in data set [15]. Further, the Binding in [5] amounted to 88.4%. The Kd in [5] was found to be 66.4 µM. The Ratio in data set [1] is 1. In addition, the MPC8 is 10 µg/mL in data set [2], 5 µg/mL in data set [3] and 5 µg/mL in data set [4].
For `CC(C)c1csc(CCc2ccn3c(=O)c(C(=O)O)cnc3c2)n1`, the MPC8 in data set [3] and in [4] was more than 40 µg/mL throughout.
With `C[C@H]1COc2c(N3CCN(C)CC3)c(F)cc3c(=O)c(C(=O)O)cn1c23.C[C@H]1COc2c(N3CCN(C)CC3)c(F)cc3c(=O)c(C(=O)O)cn1c23.O` [LEVOFLOXACIN], the No. of survivors was determined as 7 in data set [19]; 1 in data set [20]; 0 in [22]; 1 in data set [23]; 9 in data set [24]; 10 in data set [25]. Also, the No. of survivors in data set [26] stood at 0; in data set [27], 10; in data set [28], 10; in data set [29], 7; in data set [31], 1; in data set [32] it was 0. Besides, the values for the Survival in data set [21], in data set [30] and in [33] were 10%, 70% and 0%, respectively.
